Measurements published in patent publication US8512734B2, “Biocompatible coating of medical devices” (Katholieke Universiteit Leuven, K.U.Leuven R&D, priority 2004, dated 2013).

Assay: In-vitro release of β-estradiol from loaded zeogrid in simulated body fluid (HPLC)
Assay type: physicochemical
Conditions: 10 mg loaded zeogrid in 20 ml SBF, room temperature, continuous stirring
Procedure: Loading of the zeogrid sample with β-estradiol proceeds as follows. 50 mg β-estradiol is dissolved in 100 ml methylenechloride. 500 mg of zeogrid is suspended in the solution. Everything is stirred during 24 hours in a closed container. After 24 hours, the container is opened and the methylenechloride is evaporated at room temperature. The resulting powder is further dried and kept during 24 hours under reduced pressure to remove the solvent.
Release of β-estradiol from zeogrids. Simulated body fluid (SBF) was used as dissolution medium. SBF was prepared by first dissolving 1% SLS (Sodium lauryl sulphate) and 0.90% NaCl in distilled water. The solution was mixed with ethanol in a volume ratio solution:ethanol of 24:1.
The in-vitro release experiments were carried out at room temperature by dispersing 10 mg quantities of the loaded zeogrid into 20 ml quantities of SBF. In order to avoid limitations of the delivery rate by external diffusion constraints, continuous stirring is maintained. The release profile was obtained by measuring drug concentration in the fluid after different times by means of HPLC.

Time after which release of β-estradiol from zeogrid is completed: 30 min
Structure (SMILES): C[C@]12CC[C@@H]3c4ccc(O)cc4CC[C@H]3[C@@H]1CC[C@@H]2O [β-estradiol]
